{
  "source": "patent US12544360B2",
  "about": "“Pharmaceutical composition for preventing or treating coronavirus disease-19” (priority 2020, dated 2026)",
  "key": {"[1]": {"system": "SARS-CoV-2", "test": "microbe, parasite or virus in culture", "assay_type": "cell-based", "conditions": "for antiviral activity: human lung cells (Calu-3)"}, "[2]": {"system": "SARS-CoV-2", "test": "microbe, parasite or virus in culture", "assay_type": "cell-based", "conditions": "for IC50: Severe acute respiratory syndrome coronavirus 2, in Primates, Vero cells (monkey kidney cells) infected with SARS-CoV-2"}, "[3]": {"conditions": "Severe acute respiratory syndrome coronavirus 2, Calu-3 cells (human lung cells) infected with SARS-CoV-2"}},
  "data": [
    {"smiles": "CCN1CCN(c2cc(-c3ccc(F)cc3)c3c(n2)CCCCCC3)CC1", "note": "[Blonanserin]", "values": [
      {"measurement": "IC50", "setting": "[1]; [3]", "value": "> 50", "unit": "µM"}
    ]},
    {"smiles": "Cc1cc(O)c2c(c1)C(=O)c1cc(O)cc(O)c1C2=O", "note": "[Emodin]", "values": [
      {"measurement": "antiviral activity", "setting": "[2]; Vero cells", "value": "significant antiviral activities"},
      {"measurement": "antiviral activity", "setting": "[1]", "value": "exhibited antiviral activity"}
    ]},
    {"smiles": "Cc1cc(O)c2c(=O)c3c(O)cc(O)c4c5c(O)cc(O)c6c(=O)c7c(O)cc(C)c8c1c2c(c34)c(c78)c65", "note": "[Hypericin]", "values": [
      {"measurement": "IC50", "setting": "[1]; Severe acute respiratory syndrome coronavirus 2, Calu-3", "value": "> 50", "unit": "µM"}
    ]},
    {"smiles": "COc1ncc(-c2ccc3nccc(-c4ccnnc4)c3c2)cc1NS(=O)(=O)c1ccc(F)cc1F", "note": "[Omipalisib]", "values": [
      {"measurement": "IC50", "setting": "[2]", "value": 0.49, "unit": "µM"},
      {"measurement": "IC50", "setting": "[1]; [3]", "value": 0.01, "unit": "µM"},
      {"measurement": "antiviral activity", "setting": "[1]", "value": "exhibited antiviral activity"}
    ]},
    {"smiles": "CCN(CC)CCCC(C)Nc1ccnc2cc(Cl)ccc12", "note": "(stereo not drawn) [chloroquine]", "values": [
      {"measurement": "IC50", "setting": "[2]", "value": 8.89, "unit": "µM"}
    ]},
    {"smiles": "Cc1cccc(C)c1OCC(=O)N[C@@H](Cc1ccccc1)[C@@H](O)C[C@H](Cc1ccccc1)NC(=O)[C@H](C(C)C)N1CCCNC1=O", "note": "[lopinavir]", "values": [
      {"measurement": "IC50", "setting": "[2]", "value": 11, "unit": "µM"}
    ]}
  ]
}
